Data on 30 molecules can be found in patent publication US10487088B2, “Tricyclic compound serving as immunomodulator” (Chia Tai Tianqing Pharmaceutical Group Co., Ltd., priority 2016, dated 2019).

The structures appear in SMILES notation.

T1 sequence (P14902 whole entry): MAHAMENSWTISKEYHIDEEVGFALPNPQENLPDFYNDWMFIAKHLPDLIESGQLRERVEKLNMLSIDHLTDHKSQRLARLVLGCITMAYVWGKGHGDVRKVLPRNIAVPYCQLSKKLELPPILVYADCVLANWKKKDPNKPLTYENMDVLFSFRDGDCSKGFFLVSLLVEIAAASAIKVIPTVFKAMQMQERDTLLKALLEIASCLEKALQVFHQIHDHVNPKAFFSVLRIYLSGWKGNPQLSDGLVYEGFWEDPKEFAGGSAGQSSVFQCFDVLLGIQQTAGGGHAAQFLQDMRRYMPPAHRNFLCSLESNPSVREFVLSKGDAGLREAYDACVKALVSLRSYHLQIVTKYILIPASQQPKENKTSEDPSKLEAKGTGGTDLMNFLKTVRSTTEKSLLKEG

The first assay concerns the target T1, recombinant human IDO1 enzyme (Homo sapiens, UniProt P14902).
T1 construct: purchased NTRC NTRC-hlDO-10K
Put plainly: In vitro hIDO1 enzyme activity test (NFK Green fluorescence). The class given is biochemical. As to conditions: recombinant human IDO1, L-tryptophan substrate, pH 6.5. How it is done: The change of NFK production was detected by using the NFK Green™ fluorescent molecule, which is the metabolite of the IDO1 enzyme, and the IC50 value of the compound was used as an index, to evaluate the inhibitory effect of the compound on the recombinant human IDO1 enzyme.
IDO1 Enzyme Activity Assay Kit, NTRC # NTRC-hlDO-10K;
The compound was diluted to 1 mM in DMSO, and then diluted 3-fold in duplicate wells, with 10 gradients. 48 μL of 50 mM phosphate buffer (pH 6.5) was transferred to the compound plate via Bravo automated liquid handling platform. 2 μL of the diluted solution of the compound in DMSO was then added and mixed, followed by transferring 10 μL therein to an enzyme reaction plate.
The IDO1 enzyme was diluted to 20 nM in the reaction buffer (50 mM phosphate buffer pH 6.5, 0.1% Tween-20, 2% glycerol, 20 mM ascorbic acid, 20 μg/mL catalase and 20 μM methylene blue), and 20 μL of the solution was transferred to an enzyme reaction plate and incubated at 23° C. for 30 min. The reaction was started by adding 10 μL of 400 μM L-type tryptophan substrate and incubated at 23° C. for 90 min. 10 μL of NFK Green™ fluorescent dye was added, and the plate was sealed with the sealing film, incubated at 37° C. for 4 h, and then read on Envision Multimode Plate Reader (Ex 400 nm/Em 510 nm).
The control wells with the IDO1 enzyme but no compound was set as 0% inhibition, and the control wells without the IDO1 enzyme was set as 100% inhibition, and the IC50 value of the compound was calculated by analyzing the data with XLFit 5.
For the molecule `c1cc2c(s1)C(CCC1CCCCC1)n1cncc1-2` (single isomer, unassigned) [Example 9, 8-(2-cyclohexyl)-8H-thieno[3,4]pyrrolo[1,5-a]imidazole], the IC50 – broadly, the concentration that inhibits the measured activity by half – was determined as 0.055 µM. Same read-out and setting: next, `c1cc2c(s1)C(CCC1CCCCC1)n1cncc1-2` (single isomer, unassigned) [Example 10, 8-(2-cyclohexyl)-8H-thieno[3,4]pyrrolo[1,5-a]imidazole]: greater than 10 µM.

For `c1cc2c(s1)C(C1CCCCC1)n1cncc1-2` (single isomer, unassigned) [Example 14, 8-cyclohexyl-8H-thieno[3,4]pyrrolo[1,5-a]imidazole], the IC50 was 0.0659 µM. For `O=C(O)C1CCCC(C2c3sccc3-c3cncn32)C1` (single isomer, unassigned) [Example 98, 3-(8H-thieno[3,4]pyrrolo[1,5-a]imidazol-8-yl) cyclohexylcarboxylic acid], the IC50 is greater than 10 µM. `O=C(O)C1CCCC(C2c3sccc3-c3cncn32)C1` (single isomer, unassigned) [Example 99, 3-(8H-thieno[3,4]pyrrolo[1,5-a]imidazol-8-yl) cyclohexylcarboxylic acid]: the IC50 was greater than 10 µM. Turning to `O=C(O)C1CCCC(C2c3sccc3-c3cncn32)C1` (single isomer, unassigned) [Example 100, 3-(8H-thieno[3,4]pyrrolo[1,5-a]imidazol-8-yl) cyclohexylcarboxylic acid], the IC50 was 6.77 µM. For the molecule `O=C(O)C1CCCC(C2c3sccc3-c3cncn32)C1` (single isomer, unassigned) [Example 101, 3-(8H-thieno[3,4]pyrrolo[1,5-a]imidazol-8-yl) cyclohexylcarboxylic acid], the IC50 was greater than 10 µM. Consider `O=C(O)C1CCCC(C2c3sccc3-c3cncn32)C1` (single isomer, unassigned) [Example 102, 3-(8H-thieno[3,4]pyrrolo[1,5-a]imidazol-8-yl) cyclohexylcarboxylic acid], for which the IC50 is greater than 10 µM.

As to `O=C(O)C1CCCC(C2c3sccc3-c3cncn32)C1` (single isomer, unassigned) [Example 103, 3-(8H-thieno[3,4]pyrrolo[1,5-a]imidazol-8-yl) cyclohexylcarboxylic acid], the IC50 was greater than 10 µM. As to `O=C(O)C1CCCC(C2c3sccc3-c3cncn32)C1` (single isomer, unassigned) [Example 104, 3-(8H-thieno[3,4]pyrrolo[1,5-a]imidazol-8-yl) cyclohexylcarboxylic acid], the IC50 is greater than 10 µM. For the molecule `O[C@@H]1CCCC1[C@H]1c2sccc2-c2cncn21` (single isomer, unassigned) [Example 107, (trans)-2-(8H-thieno[3′,2′:3,4]pyrrolo[1,2-c]imidazol-8-yl)cyclopentanol], the IC50 came to 0.183 µM. Turning to `O[C@@H]1CCCC1[C@H]1c2sccc2-c2cncn21` (single isomer, unassigned) [Example 108, (trans)-2-(8H-thieno[3′,2′:3,4]pyrrolo[1,2-c]imidazol-8-yl)cyclopentanol], the IC50 was greater than 10 µM. On to `O[C@@H]1CCCC1[C@H]1c2sccc2-c2cncn21` (single isomer, unassigned) [Example 109, (trans)-2-(8H-thieno[3′,2′:3,4]pyrrolo[1,2-c]imidazol-8-yl)cyclopentanol], for which the IC50 is greater than 10 µM. Regarding `O[C@@H]1CCCC1[C@H]1c2sccc2-c2cncn21` (single isomer, unassigned) [Example 110, (trans)-2-(8H-thieno[3′,2′:3,4]pyrrolo[1,2-c]imidazol-8-yl)cyclopentanol], the IC50 is greater than 10 µM.

As for `OC1CCC(C2c3sccc3-c3cncn32)CC1` (single isomer, unassigned) [Example 115, 4-(8H-thieno[3,4]pyrrolo[1,5-a]imidazol-8-yl)-cyclohexanol], the IC50 is 3.51 µM. On to `OC1CCC(C2c3sccc3-c3cncn32)CC1` (single isomer, unassigned) [Example 116, 4-(8H-thieno[3,4]pyrrolo[1,5-a]imidazol-8-yl)-cyclohexanol], for which the IC50 was greater than 10 µM. As for `OC1CCC(C2c3sccc3-c3cncn32)CC1` (single isomer, unassigned) [Example 118, 4-(8H-thieno[3,4]pyrrolo[1,5-a]imidazol-8-yl)-cyclohexanol], the IC50 came out at 7.29 µM. Consider `CC(C)(C(O)C1CCCCC1)C1c2sccc2-c2cncn21` (single isomer, unassigned) [Example 120, 1-cyclohexyl-2-methyl-2-(8H-thieno[3,4]pyrrolo[1,5-a]imidazol-8-yl)-propan-1-ol], for which the IC50 was greater than 10 µM. As for `CC(C)(C(O)C1CCCCC1)C1c2sccc2-c2cncn21` (single isomer, unassigned) [Example 121, 1-cyclohexyl-2-methyl-2-(8H-thieno[3,4]pyrrolo[1,5-a]imidazol-8-yl)-propan-1-ol], the IC50 stood at 0.585 µM. Regarding `CC(C)(C(O)C1CCCCC1)C1c2sccc2-c2cncn21` (single isomer, unassigned) [Example 122, 1-cyclohexyl-2-methyl-2-(8H-thieno[3,4]pyrrolo[1,5-a]imidazol-8-yl)-propan-1-ol], the IC50 was greater than 10 µM.

For the molecule `OCCC1c2sccc2-c2cncn21` (stereo not drawn) [Example 11, 2-(8H-thieno[3′,2′:3,4]pyrrolo[1,2-c]imidazol-8-yl)ethanol], the IC50 stood at 5.98 µM. For the molecule `OC(CC1c2cscc2-c2cncn21)C1CCCCC1` (stereo not drawn) [Example 12, 1-cyclohexyl-2-(5H-thieno[3′,4′:3,4]pyrrolo[1,2-c]imidazol-5-yl)ethanol], the IC50 came to 0.106 µM. Turning to `CC(C)(C)C1c2sccc2-c2cncn21` (stereo not drawn) [Example 23, 8-(tert-butyl)-8H-thieno[3′,2′:3,4]pyrrolo[1,2-c]imidazole], the IC50 was determined as 5.26 µM. As to `CC(C)CC1c2sccc2-c2cncn21` (stereo not drawn) [Example 24, 8-isobutyl-8H-thieno[3′,2′:3,4]pyrrolo[1,2-c]imidazole], the IC50 turned out to be 1.03 µM. With `CC(C)C1c2sccc2-c2cncn21` (stereo not drawn) [Example 25, 8-isopropyl-8H-thieno[3,4]pyrrolo[1,5-a]imidazole], the IC50 worked out at 8.12 µM.

For `c1cc2c(s1)C(CCN1CCOCC1)n1cncc1-2` (stereo not drawn) [Example 30], the IC50 is greater than 10 µM. On to `c1cc2c(s1)C(CCN1CCCCC1)n1cncc1-2` (stereo not drawn) [Example 31, 8-(2-(piperidin-1-yl)ethyl)-8H-thieno[3′,2′:3,4]pyrrolo[1,2-c]imidazole], for which the IC50 is greater than 10 µM. For the molecule `c1cc2c(s1)C(C1CCC1)n1cncc1-2` (stereo not drawn) [Example 32, 8-cyclobutyl-8-hydro-thieno[3,4]pyrrolo[1,5-a]imidazole], the IC50 came out at 0.807 µM. The same measure, in the same setting: next, `O[C@@H](C[C@@H]1c2sccc2-c2cncn21)C1CCC(F)(F)CC1` [Example 47, (1S)-1-(4,4-difluorocyclohexyl)-2-((R)-8H-thieno[3,4]pyrrolo[1,5-a]imidazol-8-yl)ethanol]: 1.68 µM.

With `c1ccc2c(C3CCC(C4c5sccc5-c5nccn54)CC3)ccnc2c1` (stereo not drawn) [Example 96, 5-(4-(quinolin-4-yl)cyclohexyl)-5H-thieno[3′,2′:3,4]pyrrolo[1,2-a]imidazole], the IC50 was greater than 10 µM.

The target of another assay is T2, IDO1 enzyme in Hela cells (Homo sapiens, UniProt P14902).
T2 construct: recombinant human γ-interferon was added at a final concentration of 100 ng/mL to induce IDO1 expression; endogenous in cells; host or cells: Hela cells, induced with recombinant human γ-interferon
T2 sequence (P14902 whole entry): as above
Nature of the assay: hIDO1 cytological activity assay (kynurenine in Hela cells by LC-MS). The conditions noted are these: Hela cells induced with 100 ng/mL recombinant human γ-interferon, 20 h, read-out: IC50 hIDO1 Cytoactive. In kind it is cell-based. How it is done: The change of kynurenine in Hela cells was detected by the LC-MS method, and the IC50 value of the compound was used as an index, to evaluate the inhibitory effect of the compound on IDO1 enzyme.
A medium, trypsin and DPBS were pre-heated in a 37° C. water bath. The medium for cell culture was sucked out and washed with 10 mL of DPBS; then the pre-heated trypsin was added into the culture flask, and the flask was rotated to allow the trypsin to uniformly cover it, and then placed in a 37° C., 5% CO2 incubator and digested for 1-2 min; in each T150, cells were dispersed with 10-15 mL of medium, centrifuged at 800 rpm for 5 min, and then resuspended in 10 mL of medium; 1 mL of cell suspension was pipetted and the cells were counted with Vi-cell; Hela cells were diluted with medium to 5×10^5/mL, 80 μL of the solution was added to a 96-cell plate, and cultured at 37° C. for 5-6 h in a 5% CO2 incubator.
The compound was diluted to 1 mM in DMSO, and then diluted 3-fold in duplicate wells, with 9 gradients. 5 μL of the diluted solution of the compound in DMSO was added to the compound plate containing 95 μL of the medium, and mixed, followed by transferring 10 μL of the mixture to a cell plate.
10 μL of recombinant human γ-interferon was added at a final concentration of 100 ng/mL to induce IDO1 expression. The cells were incubated at 37° C. for 20 h in a 5% CO2 incubator. 4 μL of 5% (w/v) trichloroacetic acid was added thereto, mixed and incubated at 50° C. for 30 min. After centrifugation at 2400 rpm for 10 min, 40 μL of the supernatant was taken and placed in a 96-well V-bottom plate, and then a precipitant was added in the plate. After mixing, the mixture was centrifuged at 4000 rpm for 10 min. 100 μL of the supernatant was transferred to a new 96-well V-bottom plate. The content of kynurenine was determined by LC-MS.
The control wells having γ-interferon but no compound was set as 0% inhibition, and the control wells without Hela cell was set as 100% inhibition, and the IC50 value of the compound was calculated by analyzing the data with XLFit 5.
Consider `c1cc2c(s1)C(CCC1CCCCC1)n1cncc1-2` (single isomer, unassigned) [Example 9, 8-(2-cyclohexyl)-8H-thieno[3,4]pyrrolo[1,5-a]imidazole], for which the IC50 is 0.0175 µM. For the molecule `c1cc2c(s1)C(CCC1CCCCC1)n1cncc1-2` (single isomer, unassigned) [Example 10, 8-(2-cyclohexyl)-8H-thieno[3,4]pyrrolo[1,5-a]imidazole], the IC50 is greater than 5 µM.

With `c1cc2c(s1)C(C1CCCCC1)n1cncc1-2` (single isomer, unassigned) [Example 14, 8-cyclohexyl-8H-thieno[3,4]pyrrolo[1,5-a]imidazole], the half-maximal inhibitory concentration (IC50) was determined as 0.22 µM.
